US11447535B2, “GLP-1 analogues” (Sun Pharmaceutical Industries Limited, priority 2018, dated 2022)
Marks after values point to notes of the source that are not given here.

How the values were obtained:
[1] = Food intake and body weight recorded in the rat OGTT study; format: in vivo, rats; settings: 1 mg/Kg; for Body Weight Change (%) Mean / Food Consumption (g) Mean: Exp. 2
Experimental: (§1) Animals were divided into three groups—a normal control group, a test group and a third semaglutide group, with 4 animals in each group. The animals were fasted for 12 hours before initiation of OGTT. To the test group animals, the Compound 1 was injected subcutaneously at 1 mg/kg dose. To the semaglutide group, a dose of 1 mg/kg was injected subcutaneously. After 22 hrs, 166 hrs and 334 hrs of subcutaneous injection of test drug or semaglutide, blood glucose was measured with blood glucose meter (time 0 measurements). All the animals were then given 2 g/kg of glucose solution orally. Blood glucose was measured at 20, 40, 60, 90 and 120 minutes following glucose challenge. Body weight and food intake was recorded. Blood glucose data was analyzed using Two way ANOVA followed by Bonferroni posttests using PRISM (Graph Pad version 5.03). Data of Blood glucose AUC0-120 min, was analyzed using t test.
as §1, with “animals,” for “animals, the”, “1, Compound 13 and Compound 16 were” for “1 was”, “compound” for “drug”

[2] = tested on: db/db mice (diabetic mouse model); experiment: Separate db/db diabetic mouse study, q2d*15 up to day 28, recovery period day 29 to day 45; format: in vivo; settings: for Blood Glucose AUC (Day 30-37) % Change vs Control / Blood Glucose AUC (Day 30-37) (mg/dL*days) Mean / Blood Glucose AUC (Day 38-45) % Change vs Control / Blood Glucose AUC (Day 38-45) (mg/dL*days) Mean: recovery period
Experimental: The study was performed in similar manner as above on diabetic mouse model. The animals were divided into three treatment groups—a diabetic control group, a test group and a semaglutide treatment group. The representative compounds of the present disclosure, Compound 1, Compound 13 and Compound 16, were injected subcutaneously at 3.04 or 6.078 nM dose (every alternate day up to day 28 (q2d*15). The same dosage regimen was administered in semaglutide treatment group. Measurements of blood glucose levels and body weight were done daily. % HbA1c, Insulin was measured on Day 0, day 14 and day 29. Cumulative food intake and body weight change was calculated on day 14 and 29. % HbA1c, Insulin data was analyzed by two way ANOVA followed by Bonferroni's posttests using PRISM (Graph Pad version 5.03). Whereas Blood Glucose AUC, Body weight change and Cumulative food intake data was analyzed by one way ANOVA followed by Bonferroni's posttests using PRISM (Graph Pad version 5.03). From day 29 to day 45, animals were kept on recovery period during which no drug treatment was given. Blood Glucose and Body weight was measured during this period. On day 45, Body weight Changes, % HbA1c, Insulin was measured.

SD rats = experiment: Oral glucose tolerance test (OGTT) in rats; single injection; 1 mg/kg; format: in vivo; design: Change in AUC (mg/dL*min): unit not given here; settings: for Blood Glucose AUC (mg/dL*min) Mean / Change in AUC (mg/dL*min): OGTT, 1 mg/Kg; for Blood Glucose AUC (mg/dL*min) Mean: Exp. 2; for Change in AUC (mg/dL*min): Exp. 2, vs control group
Experimental: as §1
as §1, with “animals,” for “animals, the”, “1, Compound 13 and Compound 16 were” for “1 was”, “compound” for “drug”

[3] = earlier dose 3.04 nM (3.4 nM given for Compound 16)
[4] = recovery study, day 45, earlier dose 3.04 nM
[5] = recovery study, day 45, earlier dose 6.078 nM (6.0788 nM given for Compound 13)

Q: What does the source list for “Compound 16: SEQ ID NO: 05, acylated with Moiety D (HXXXGTFTSDVSSYLXGQAAXEFXAWLVRGRGXX; lipidated side chain; (2)..(2) Xaa = Aib; (3)..(3) Xaa = absent.; (4)..(4) Xaa = Glu.; (16)..(16) Xaa = Glu.; (21)..(21) Lys is substituted; (24)..(24) Xaa is Ile.; (33)..(33) Xaa is Leu.; (34)..(34) Xaa is absent.)”?
A: Body Weight Change (%) Mean ([1]; 48 h): −10.7%; Food Consumption (g) Mean ([1]; 48 h): 5.9 g; Body Weight Change (%) Mean ([1]; 154 h): −7.0%; Body Weight Change (%) Mean ([1]; 324 h): −4.3%; Food Consumption (g) Mean ([1]; 324 h): 104.3 g; food consumed vs animals administered with semaglutide ([1]; text on Table 8): consumed significantly less food; lowering of body weight ([1]; text on Table 8): substantial lowering of body weight; Blood Glucose AUC (Day 0-29) % Change Vs Control ([2]; 3.04 nM, q2d*15): −44.54%; Blood Glucose AUC (Day 0-29) (mg/dL*days) Mean ([2]; 3.04 nM, q2d*15): 9399.0*** mg/dL*days; Body Weight Change Day 29, % Change vs Day 0 Mean ([2]; 3.04 nM, q2d*15): −1.4%; Cumulative Food Intake (g) Day 0-29 Mean ([2]; 3.04 nM, q2d*15): 77.4 g; Blood Glucose AUC (Day 0-29) % Change Vs Control ([2]; 6.078 nM, q2d*15): −52.29%; Blood Glucose AUC (Day 0-29) (mg/dL*days) Mean ([2]; 6.078 nM, q2d*15): 8086.1***## mg/dL*days; Body Weight Change Day 29, % Change vs Day 0 Mean ([2]; 6.078 nM, q2d*15): −5.5%; Cumulative Food Intake (g) Day 0-29 Mean ([2]; 6.078 nM, q2d*15): 66.7 g; % HbA1C Mean ([2]; Day 0, 3.04 nM, q2d*15): 7.74%; Insulin (ng/mL) Mean ([2]; Day 0, 3.04 nM, q2d*15): 13.9 ng/mL; % HbA1C Mean ([2]; Day 0, 6.078 nM, q2d*15): 7.83%; Insulin (ng/mL) Mean ([2]; Day 0, 6.078 nM, q2d*15): 21.8 ng/mL; % HbA1C Mean ([2]; Day 14, 3.04 nM, q2d*15): 5.67 ***# %; Insulin (ng/mL) Mean ([2]; Day 14, 3.04 nM, q2d*15): 50.8* ng/mL; % HbA1C Mean ([2]; Day 14, 6.078 nM, q2d*15): 5.64 ***# %; Insulin (ng/mL) Mean ([2]; Day 14, 6.078 nM, q2d*15): 58.1** ng/mL; % HbA1C Mean ([2]; Day 29, 3.04 nM, q2d*15): 5.33 ***# %; Insulin (ng/mL) Mean ([2]; Day 29, 3.04 nM, q2d*15): 53.8** ng/mL; % HbA1C Mean ([2]; Day 29, 6.078 nM, q2d*15): 5.16 ***# %; Insulin (ng/mL) Mean ([2]; Day 29, 6.078 nM, q2d*15): 68.2*** ng/mL; HbA1c, blood glucose, food consumption and body weight vs control ([2]; about 3 nM and 6 nM dose): significant reduction; Blood Glucose AUC (Day 30-37) % Change vs Control [2, 3]: −32.62%; Blood Glucose AUC (Day 30-37) (mg/dL*days) Mean [2, 3]: 2420.0** mg/dL*days; Blood Glucose AUC (Day 38-45) % Change vs Control [2, 3]: −8.82%; Blood Glucose AUC (Day 38-45) (mg/dL*days) Mean [2, 3]: 3284.0* mg/dL*days; Blood Glucose AUC (Day 30-37) % Change vs Control ([2]; earlier dose 6.078 nM): −39.65%; Blood Glucose AUC (Day 30-37) (mg/dL*days) Mean ([2]; earlier dose 6.078 nM): 2167.7*** mg/dL*days; Blood Glucose AUC (Day 38-45) % Change vs Control ([2]; earlier dose 6.078 nM): −12.97%; Blood Glucose AUC (Day 38-45) (mg/dL*days) Mean ([2]; earlier dose 6.078 nM): 3134.7** mg/dL*days; % HbA1C Mean [2, 4]: 7.1* %; Delta HbA1C vs. DC [2, 4]: −1.4; Insulin (ng/mL) Mean [2, 4]: 15.5 ng/mL; % HbA1C Mean [2, 5]: 7.2* %; Delta HbA1C vs. DC [2, 5]: −1.3; Insulin (ng/mL) Mean [2, 5]: 18.4 ng/mL; Body Weight % Change vs Day 45 Mean ([2]; recovery study, earlier dose 3.04 nM): 6.1%; Body Weight % Change vs Day 45 Mean ([2]; recovery study, earlier dose 6.078 nM (6.0788 nM given for Compound 13)): 5.7%; Blood Glucose AUC (mg/dL*min) Mean (SD rats; 22 hr): 1646 mg·min/dL; Change in AUC (mg/dL*min) (SD rats; 22 hr): −80.7; Blood Glucose AUC (mg/dL*min) Mean (SD rats; 168 hr): 4283 mg·min/dL; Change in AUC (mg/dL*min) (SD rats; 168 hr): −57.6; Blood Glucose AUC (mg/dL*min) Mean (SD rats; 336 hr): 8295.0 mg·min/dL; Change in AUC (mg/dL*min) (SD rats; 336 hr): −2.3; reduction in blood glucose AUC (SD rats; after 168 hrs of injection, 1 mg/kg): about 60%
